The values that follow come from ChEMBL document CHEMBL1158599, “(2S,4S)-1-[2-(1,1-dimethyl-3-oxo-3-pyrrolidin-1-yl-propylamino)acetyl]-4-fluoro-pyrrolidine-2-carbonitrile: a potent, selective, and orally bioavailable dipeptide-derived inhibitor of dipeptidyl peptidase IV” (Bioorg Med Chem Lett, 2010).

The species named for series [1] is Mus musculus. As to the kind of experiment: animal or person. Conditions: Plasma, po, 4 h, read-out: INH.
In series [2] the target is T1, Dipeptidyl peptidase 9 (Homo sapiens, UniProt Q86TI2). As to the kind of experiment: Inhibition of DPP9.
Target sequence in this assay (Q86TI2 whole entry): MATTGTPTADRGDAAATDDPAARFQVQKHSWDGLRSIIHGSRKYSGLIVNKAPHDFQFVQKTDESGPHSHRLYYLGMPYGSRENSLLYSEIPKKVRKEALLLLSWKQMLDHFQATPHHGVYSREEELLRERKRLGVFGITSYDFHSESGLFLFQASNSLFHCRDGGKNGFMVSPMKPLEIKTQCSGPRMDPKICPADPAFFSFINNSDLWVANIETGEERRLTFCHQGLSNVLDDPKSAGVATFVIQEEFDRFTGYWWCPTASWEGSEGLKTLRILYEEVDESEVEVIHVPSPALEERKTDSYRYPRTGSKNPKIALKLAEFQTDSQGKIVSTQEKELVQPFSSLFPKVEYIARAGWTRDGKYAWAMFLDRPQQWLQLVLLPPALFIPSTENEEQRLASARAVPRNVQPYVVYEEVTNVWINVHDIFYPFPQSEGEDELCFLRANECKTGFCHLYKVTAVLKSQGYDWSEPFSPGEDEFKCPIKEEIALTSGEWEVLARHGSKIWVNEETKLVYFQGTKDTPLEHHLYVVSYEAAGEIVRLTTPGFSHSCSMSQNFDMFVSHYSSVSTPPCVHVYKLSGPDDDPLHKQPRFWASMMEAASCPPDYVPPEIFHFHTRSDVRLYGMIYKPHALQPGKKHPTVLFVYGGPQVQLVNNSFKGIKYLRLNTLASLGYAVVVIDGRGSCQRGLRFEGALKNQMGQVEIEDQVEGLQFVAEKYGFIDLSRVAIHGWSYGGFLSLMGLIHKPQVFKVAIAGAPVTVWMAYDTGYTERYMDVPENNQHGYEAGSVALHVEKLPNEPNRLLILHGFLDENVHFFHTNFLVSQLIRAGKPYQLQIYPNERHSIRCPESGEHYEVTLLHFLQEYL
The species named for series [3] is Rattus norvegicus. Briefly: animal or person. As to conditions: Plasma, po, 8 h, read-out: INH.
Series [4] is filed under the species Rattus norvegicus. Briefly: animal or person. As to conditions: Plasma, po, 0.5 h, read-out: INH.
Series [5] addresses T2, Dipeptidyl peptidase 4 (Homo sapiens, UniProt P27487).
In series [6] the target is T2, Dipeptidyl peptidase 4. This is another data set of the same source.
In the next series the target is Dipeptidyl peptidase 8 (Homo sapiens, UniProt Q6V1X1).
Series [7] addresses T2, Dipeptidyl peptidase 4. The source holds these as a separate data set.
Series [8] addresses T1, Dipeptidyl peptidase 9. Briefly: Inhibition of DPP9 at 20 uM.
Target sequence in this assay (Q86TI2 2-863 limits assumed): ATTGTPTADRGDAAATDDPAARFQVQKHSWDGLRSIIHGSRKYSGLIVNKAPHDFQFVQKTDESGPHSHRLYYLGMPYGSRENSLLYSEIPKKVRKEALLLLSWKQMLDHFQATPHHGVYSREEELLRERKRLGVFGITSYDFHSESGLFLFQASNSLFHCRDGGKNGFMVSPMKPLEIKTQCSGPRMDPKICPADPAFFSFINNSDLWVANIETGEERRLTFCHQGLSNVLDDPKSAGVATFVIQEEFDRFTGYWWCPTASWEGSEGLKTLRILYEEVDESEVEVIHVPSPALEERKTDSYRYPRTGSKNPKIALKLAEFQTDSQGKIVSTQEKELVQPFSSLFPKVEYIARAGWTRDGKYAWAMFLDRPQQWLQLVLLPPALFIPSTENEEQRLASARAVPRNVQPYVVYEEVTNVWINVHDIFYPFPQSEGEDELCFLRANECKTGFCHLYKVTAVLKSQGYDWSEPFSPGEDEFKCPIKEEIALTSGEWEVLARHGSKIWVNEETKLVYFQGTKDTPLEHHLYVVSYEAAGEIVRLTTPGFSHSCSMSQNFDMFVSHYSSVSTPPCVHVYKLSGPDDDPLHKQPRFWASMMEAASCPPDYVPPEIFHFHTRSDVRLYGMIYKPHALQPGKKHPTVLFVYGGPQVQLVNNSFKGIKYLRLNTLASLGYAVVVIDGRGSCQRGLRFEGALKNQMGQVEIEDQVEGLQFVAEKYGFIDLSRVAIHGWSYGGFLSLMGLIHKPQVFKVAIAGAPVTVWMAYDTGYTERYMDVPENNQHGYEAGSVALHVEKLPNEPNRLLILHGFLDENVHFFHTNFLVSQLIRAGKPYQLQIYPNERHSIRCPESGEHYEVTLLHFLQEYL
For another series, the target named is T3, Prolyl endopeptidase FAP (Homo sapiens, UniProt Q12884).
T3 sequence (Q12884 whole entry): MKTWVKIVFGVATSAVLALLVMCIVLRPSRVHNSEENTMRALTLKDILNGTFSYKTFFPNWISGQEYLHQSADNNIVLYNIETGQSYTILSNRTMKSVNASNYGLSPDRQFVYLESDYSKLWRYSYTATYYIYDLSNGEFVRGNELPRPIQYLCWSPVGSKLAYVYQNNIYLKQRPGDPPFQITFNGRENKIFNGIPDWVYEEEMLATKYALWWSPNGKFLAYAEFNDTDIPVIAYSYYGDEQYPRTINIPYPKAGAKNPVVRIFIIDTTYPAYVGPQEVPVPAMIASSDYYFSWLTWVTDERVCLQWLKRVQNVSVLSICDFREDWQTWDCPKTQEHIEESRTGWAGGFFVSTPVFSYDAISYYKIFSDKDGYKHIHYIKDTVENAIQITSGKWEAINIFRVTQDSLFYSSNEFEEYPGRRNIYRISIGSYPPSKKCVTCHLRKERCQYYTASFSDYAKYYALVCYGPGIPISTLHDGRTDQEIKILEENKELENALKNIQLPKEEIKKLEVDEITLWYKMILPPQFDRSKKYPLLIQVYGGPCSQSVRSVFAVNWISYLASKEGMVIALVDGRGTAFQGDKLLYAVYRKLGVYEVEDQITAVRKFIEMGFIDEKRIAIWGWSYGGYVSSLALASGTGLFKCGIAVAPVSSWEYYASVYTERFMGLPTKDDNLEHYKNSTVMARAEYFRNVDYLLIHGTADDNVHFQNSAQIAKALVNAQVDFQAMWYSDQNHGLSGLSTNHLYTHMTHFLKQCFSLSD
As to the kind of experiment: Inhibition of FAP.

The target of a further series is Dipeptidyl peptidase 2 (Homo sapiens, UniProt Q9UHL4). Briefly: Inhibition of DPP2.
Series [9] has as its system Mus musculus. As to the kind of experiment: Antihyperglycemic activity in C57BL/6J mouse assessed as reduction in blood glucose AUC at 3 mg/kg, po administered 30 mins before glucose challenge. The format is functional. Also on record: scale not given: the % may be the effect or the level left.
Series [10] addresses T4, Caspase-10 (Homo sapiens) (UniProt Q92851).
T4 sequence (whole entry): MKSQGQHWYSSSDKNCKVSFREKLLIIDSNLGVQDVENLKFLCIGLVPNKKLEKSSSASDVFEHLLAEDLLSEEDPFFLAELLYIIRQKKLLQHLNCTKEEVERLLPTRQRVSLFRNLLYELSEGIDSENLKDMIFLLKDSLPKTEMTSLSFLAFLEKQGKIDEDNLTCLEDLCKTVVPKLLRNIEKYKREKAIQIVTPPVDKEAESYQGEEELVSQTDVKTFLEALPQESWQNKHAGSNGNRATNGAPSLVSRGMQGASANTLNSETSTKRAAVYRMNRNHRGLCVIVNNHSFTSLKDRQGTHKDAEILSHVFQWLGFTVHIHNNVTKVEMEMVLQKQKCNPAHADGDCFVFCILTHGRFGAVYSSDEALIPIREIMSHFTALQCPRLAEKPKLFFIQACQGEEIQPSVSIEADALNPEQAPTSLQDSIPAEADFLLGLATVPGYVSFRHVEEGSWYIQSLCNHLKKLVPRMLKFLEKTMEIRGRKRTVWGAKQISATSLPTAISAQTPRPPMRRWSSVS
As to the kind of experiment: Inhibition of caspase 10 at 10 uM.

The nature of series [11]: Inhibition of L-type calcium channel. Conditions: concentration not given here.
Series [12] has as its target Cathepsin B (Homo sapiens) (UniProt P07858). Briefly: Inhibition of cathepsin B at 10 uM.
In series [13] the target is Voltage-gated inwardly rectifying potassium channel KCNH2 (Homo sapiens, UniProt Q12809). Briefly: Inhibition of human ERG.
Series [14] is described as follows: Oral bioavailability in dog. The format is ADME, organism-based, Canis lupus familiaris. As to conditions: in vivo.
Series [15] can be described thus: Inhibition of sodium channel site 2. As to conditions: concentration not given here.
A short description of series [16]: Inhibition of trypsin at 10 uM.
Series [17] deals with Beta-secretase 1 (Homo sapiens) (UniProt P56817). As to the kind of experiment: Inhibition of beta secretase at 10 uM.
Series [18] addresses T5, Pro-cathepsin H (Homo sapiens) (UniProt P09668).
T5 sequence (whole entry): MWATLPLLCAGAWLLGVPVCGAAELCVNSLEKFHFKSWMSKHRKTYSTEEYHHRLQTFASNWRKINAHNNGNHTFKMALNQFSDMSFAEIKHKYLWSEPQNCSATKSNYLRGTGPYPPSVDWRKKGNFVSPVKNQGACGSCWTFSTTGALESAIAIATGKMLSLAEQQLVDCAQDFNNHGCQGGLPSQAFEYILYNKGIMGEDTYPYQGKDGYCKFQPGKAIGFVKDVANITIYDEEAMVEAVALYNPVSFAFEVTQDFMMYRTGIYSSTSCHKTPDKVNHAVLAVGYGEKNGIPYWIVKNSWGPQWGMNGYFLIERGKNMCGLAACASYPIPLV
Briefly: Inhibition of cathepsin H at 10 uM.

Series [19] addresses Prothrombin (Homo sapiens) (UniProt P00734). As to the kind of experiment: Inhibition of thrombin at 10 uM.
Series [20] can be described thus: Oral bioavailability in rat. The format is ADME, organism-based. Conditions: in vivo.
Series [21] deals with Coagulation factor X (Homo sapiens) (UniProt P00742). Briefly: Inhibition of factor 10a at 10 uM.
For a further series, the target named is T6, Caspase-1 (Homo sapiens) (UniProt P29466).
T6 sequence (whole entry): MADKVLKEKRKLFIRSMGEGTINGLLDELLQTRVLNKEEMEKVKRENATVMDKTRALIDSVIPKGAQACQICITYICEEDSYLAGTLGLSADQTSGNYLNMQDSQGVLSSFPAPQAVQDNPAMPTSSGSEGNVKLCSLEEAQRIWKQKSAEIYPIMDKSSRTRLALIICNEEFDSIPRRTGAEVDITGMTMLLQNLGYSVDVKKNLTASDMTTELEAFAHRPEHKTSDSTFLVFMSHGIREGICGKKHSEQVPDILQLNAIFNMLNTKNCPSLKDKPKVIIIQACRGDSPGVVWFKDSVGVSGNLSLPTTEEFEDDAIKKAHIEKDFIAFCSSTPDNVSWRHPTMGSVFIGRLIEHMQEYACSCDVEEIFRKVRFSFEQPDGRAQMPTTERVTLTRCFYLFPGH
Briefly: Inhibition of caspase1 at 10 uM.

Structures are written as SMILES.

T2 sequence (P27487 whole entry): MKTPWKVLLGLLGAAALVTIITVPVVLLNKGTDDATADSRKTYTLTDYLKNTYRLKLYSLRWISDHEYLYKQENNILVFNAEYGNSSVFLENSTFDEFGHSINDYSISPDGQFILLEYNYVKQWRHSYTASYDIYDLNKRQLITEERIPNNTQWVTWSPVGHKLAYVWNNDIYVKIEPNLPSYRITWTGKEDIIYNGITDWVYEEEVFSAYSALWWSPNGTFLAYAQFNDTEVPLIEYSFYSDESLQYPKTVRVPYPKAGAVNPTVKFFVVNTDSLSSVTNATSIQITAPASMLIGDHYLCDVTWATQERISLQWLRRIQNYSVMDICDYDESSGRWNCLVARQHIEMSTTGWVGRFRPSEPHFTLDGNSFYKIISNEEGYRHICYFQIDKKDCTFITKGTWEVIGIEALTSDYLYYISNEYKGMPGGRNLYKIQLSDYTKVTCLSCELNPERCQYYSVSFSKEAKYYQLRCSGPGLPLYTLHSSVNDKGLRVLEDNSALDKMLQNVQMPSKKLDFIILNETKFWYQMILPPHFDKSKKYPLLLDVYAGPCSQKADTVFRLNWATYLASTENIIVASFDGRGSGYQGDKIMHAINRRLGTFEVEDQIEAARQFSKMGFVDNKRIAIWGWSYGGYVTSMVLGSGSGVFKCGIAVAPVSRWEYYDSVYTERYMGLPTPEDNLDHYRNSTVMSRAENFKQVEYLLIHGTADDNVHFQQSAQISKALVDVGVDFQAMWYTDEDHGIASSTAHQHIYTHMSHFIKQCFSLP
Sequence of Dipeptidyl peptidase 8 (Q6V1X1 whole entry): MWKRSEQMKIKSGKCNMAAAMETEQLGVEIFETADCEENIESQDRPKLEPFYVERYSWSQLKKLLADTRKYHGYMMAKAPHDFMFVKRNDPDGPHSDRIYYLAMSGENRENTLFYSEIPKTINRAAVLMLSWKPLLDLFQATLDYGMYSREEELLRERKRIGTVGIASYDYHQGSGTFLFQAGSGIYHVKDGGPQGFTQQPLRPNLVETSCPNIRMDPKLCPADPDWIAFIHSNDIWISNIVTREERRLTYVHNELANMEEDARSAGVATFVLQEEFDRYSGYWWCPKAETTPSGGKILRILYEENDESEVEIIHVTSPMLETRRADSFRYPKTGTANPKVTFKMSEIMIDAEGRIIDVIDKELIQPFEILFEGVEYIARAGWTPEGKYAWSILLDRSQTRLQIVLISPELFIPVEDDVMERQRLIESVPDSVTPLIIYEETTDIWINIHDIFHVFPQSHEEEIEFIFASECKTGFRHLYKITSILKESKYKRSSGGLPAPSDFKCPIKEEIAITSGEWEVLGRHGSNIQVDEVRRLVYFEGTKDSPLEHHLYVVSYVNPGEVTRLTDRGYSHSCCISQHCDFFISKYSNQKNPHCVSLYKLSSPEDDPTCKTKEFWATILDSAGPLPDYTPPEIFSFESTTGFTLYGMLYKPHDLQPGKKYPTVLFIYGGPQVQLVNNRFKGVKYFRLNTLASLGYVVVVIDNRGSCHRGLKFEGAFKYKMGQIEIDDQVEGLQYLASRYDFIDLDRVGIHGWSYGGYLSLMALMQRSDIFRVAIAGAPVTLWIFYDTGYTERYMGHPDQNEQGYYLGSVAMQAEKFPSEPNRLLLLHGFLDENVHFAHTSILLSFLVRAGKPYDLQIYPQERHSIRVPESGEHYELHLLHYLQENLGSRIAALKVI
Sequence of Voltage-gated inwardly rectifying potassium channel KCNH2 (Q12809 whole entry): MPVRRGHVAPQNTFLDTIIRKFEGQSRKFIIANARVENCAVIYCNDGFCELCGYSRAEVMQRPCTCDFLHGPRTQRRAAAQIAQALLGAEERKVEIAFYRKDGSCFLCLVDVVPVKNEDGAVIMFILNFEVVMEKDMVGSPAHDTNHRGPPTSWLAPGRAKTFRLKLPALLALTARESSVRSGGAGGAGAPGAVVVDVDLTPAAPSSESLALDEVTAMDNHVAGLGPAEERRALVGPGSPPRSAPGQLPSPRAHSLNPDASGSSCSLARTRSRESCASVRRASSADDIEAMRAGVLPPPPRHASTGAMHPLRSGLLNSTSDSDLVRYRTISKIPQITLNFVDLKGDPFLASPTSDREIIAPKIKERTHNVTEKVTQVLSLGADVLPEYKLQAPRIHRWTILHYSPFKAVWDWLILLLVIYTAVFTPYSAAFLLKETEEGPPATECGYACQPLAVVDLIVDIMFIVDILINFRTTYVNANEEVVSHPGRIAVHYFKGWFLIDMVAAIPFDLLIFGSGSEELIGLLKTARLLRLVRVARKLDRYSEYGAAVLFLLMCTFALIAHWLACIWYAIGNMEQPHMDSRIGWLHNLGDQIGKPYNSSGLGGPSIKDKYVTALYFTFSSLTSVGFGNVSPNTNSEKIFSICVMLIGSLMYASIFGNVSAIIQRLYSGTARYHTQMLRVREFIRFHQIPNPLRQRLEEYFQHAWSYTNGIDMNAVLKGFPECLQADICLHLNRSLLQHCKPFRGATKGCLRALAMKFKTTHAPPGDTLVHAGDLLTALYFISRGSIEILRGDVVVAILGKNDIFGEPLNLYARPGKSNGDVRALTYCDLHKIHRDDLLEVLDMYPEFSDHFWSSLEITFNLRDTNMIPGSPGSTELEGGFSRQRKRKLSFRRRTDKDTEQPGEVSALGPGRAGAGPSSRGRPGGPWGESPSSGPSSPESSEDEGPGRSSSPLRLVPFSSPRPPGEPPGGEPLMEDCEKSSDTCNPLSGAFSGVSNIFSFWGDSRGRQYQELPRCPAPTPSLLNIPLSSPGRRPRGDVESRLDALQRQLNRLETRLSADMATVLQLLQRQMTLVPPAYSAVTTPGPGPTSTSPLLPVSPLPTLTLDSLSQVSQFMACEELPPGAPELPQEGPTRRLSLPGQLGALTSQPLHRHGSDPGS
Sequence of Beta-secretase 1 (Homo sapiens) (P56817 whole entry): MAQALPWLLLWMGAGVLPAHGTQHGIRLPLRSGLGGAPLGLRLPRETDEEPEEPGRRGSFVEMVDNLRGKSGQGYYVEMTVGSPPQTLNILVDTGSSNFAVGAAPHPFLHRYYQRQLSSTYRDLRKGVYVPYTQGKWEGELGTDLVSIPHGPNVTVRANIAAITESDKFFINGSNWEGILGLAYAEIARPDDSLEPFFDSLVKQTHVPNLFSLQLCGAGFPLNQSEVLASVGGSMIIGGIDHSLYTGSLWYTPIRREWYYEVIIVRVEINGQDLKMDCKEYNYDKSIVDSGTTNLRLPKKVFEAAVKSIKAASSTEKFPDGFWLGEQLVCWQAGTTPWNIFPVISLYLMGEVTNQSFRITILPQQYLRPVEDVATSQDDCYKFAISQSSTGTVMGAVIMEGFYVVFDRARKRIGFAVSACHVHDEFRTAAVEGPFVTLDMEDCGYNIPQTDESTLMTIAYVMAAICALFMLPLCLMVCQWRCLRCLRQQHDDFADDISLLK

Consider `CC(C)(CC(=O)N1Cc2ccccc2C1)NCC(=O)N1CCC[C@H]1C#N`, for which the inhibition in vivo at 18 mg/kg in the series listed under Mus musculus [1] was over 80%. For the same compound, the IC50 (usually the concentration that inhibits the measured activity by half) at Dipeptidyl peptidase 9 [2] is over 100000 nM.

As to `CC(C)(CC(=O)Nc1ccccn1)NCC(=O)N1C[C@@H](F)C[C@H]1C#N`, the inhibition in vivo at 3 mg/kg in the series listed under Rattus norvegicus [3] came to 31%; in the series listed under Rattus norvegicus [4], 87%. Moreover, the IC50 is 24 nM against Dipeptidyl peptidase 4 [5]; 19 nM against Dipeptidyl peptidase 4 [6]; over 20000 nM on Dipeptidyl peptidase 9 [2]; over 20000 nM against Dipeptidyl peptidase 8; 19 nM against Dipeptidyl peptidase 4 [7].

In the case of `CC(C)(CC(=O)N1CCOCC1)NCC(=O)N1C[C@@H](F)C[C@H]1C#N`, the figures for the inhibition in vivo at 3 mg/kg in the series listed under Rattus norvegicus [3] and in the series listed under Rattus norvegicus [4] were 59% and 89%, respectively. Also, the IC50 against Dipeptidyl peptidase 4 [5] is 14 nM; against Dipeptidyl peptidase 4 [6], 13 nM; at Dipeptidyl peptidase 9 [2], over 20000 nM; against Dipeptidyl peptidase 8 it was over 20000 nM; at Dipeptidyl peptidase 4 [7], 20 nM.

Take `COc1ccc(NC(=O)CC(C)(C)NCC(=O)N2C[C@@H](F)C[C@H]2C#N)cc1OC`: the inhibition (in general, the relative decrease from the control value, in per cent) on Dipeptidyl peptidase 9 [8] turned out to be 73%. Besides, the inhibition in vivo at 3 mg/kg in the series listed under Rattus norvegicus [3] worked out at 18%; in the series filed under Rattus norvegicus [4], 86%. Moreover, the results for the IC50 against Dipeptidyl peptidase 8 and on Dipeptidyl peptidase 4 [7] were over 20000 nM and 27 nM, respectively.

`COc1ccc(NC(=O)CC(C)(C)NCC(=O)N2CCC[C@H]2C#N)cc1OC`: the concentration for half-maximal inhibition (IC50) is over 50000 nM against Prolyl endopeptidase FAP, over 20000 nM against Dipeptidyl peptidase 2, over 20000 nM on Dipeptidyl peptidase 9 [2] and over 50000 nM at Dipeptidyl peptidase 8.

Consider `COc1ccc(NC(=O)CC(C)(C)NCC(=O)N2C[C@@H](F)C[C@H]2C#N)nc1`, for which the inhibition against Dipeptidyl peptidase 9 [8] was 61%. For the same compound, the inhibition in vivo at 3 mg/kg is 41% in the series filed under Rattus norvegicus [3] and 88% in the series filed under Rattus norvegicus [4]. The IC50 was 18 nM on Dipeptidyl peptidase 4 [6], over 20000 nM on Dipeptidyl peptidase 8 and 19 nM against Dipeptidyl peptidase 4 [7].

Regarding `CC(C)(CC(=O)N1CCCC1)NCC(=O)N1C[C@@H](F)C[C@H]1C#N` [DBPR-108], the Activity in the series on Mus musculus [9] is given as 67%. Further, the inhibition in [10] was 8%; in series [11] it was -9%; in series [12] it was -10%; in series [15] it was 1%; in [16], 0%; in series [17], 3%. Also, the inhibition in series [18] is 0%; in series [19] it was -7%; in series [21], 2%; at Caspase-1 (Homo sapiens) it was 23%. Moreover, the figures for the inhibition in vivo at 3 mg/kg in the series listed under Rattus norvegicus [3] and in the series listed under Rattus norvegicus [4] were 70% and 82%, respectively. Further, the “inhibition (INH)” value in [13] was -6%. The IC50 on Dipeptidyl peptidase 4 [5] was 10 nM; on Dipeptidyl peptidase 4 [6], 5 nM; on Dipeptidyl peptidase 9 [2], over 50000 nM; against Dipeptidyl peptidase 8 it was over 100000 nM; at Dipeptidyl peptidase 4 [7], 15 nM. For the same compound, the values for the bioavailability in series [14] and in series [20] were 68% and 19%, respectively.

As for `C#C[C@@H]1C[C@H](F)CN1C(=O)CC(C)(C)CC(=O)N[C@H]1C[C@@H]1c1cccc(Cl)c1`, the inhibition against Dipeptidyl peptidase 9 [8] was 72%. In addition, the inhibition in vivo at 3 mg/kg in the series listed under Rattus norvegicus [3] was found to be 30%; in the series listed under Rattus norvegicus [4], 66%. Also, the IC50 at Prolyl endopeptidase FAP was over 20000 nM; against Dipeptidyl peptidase 4 [5], 210 nM; against Dipeptidyl peptidase 4 [6], 847 nM; against Dipeptidyl peptidase 2, over 100000 nM; against Dipeptidyl peptidase 8 it was over 20000 nM; against Dipeptidyl peptidase 4 [7], 15 nM.

On to `CC(C)(CC(=O)N1CC[C@@H](O)C1)NCC(=O)N1C[C@@H](F)C[C@H]1C#N`, for which the inhibition in vivo at 3 mg/kg in the series listed under Rattus norvegicus [3] was 15%; in the series filed under Rattus norvegicus [4], 63%. For the same compound, the IC50 against Dipeptidyl peptidase 4 [5] was 23 nM; against Dipeptidyl peptidase 4 [6], 21 nM; at Dipeptidyl peptidase 9 [2], over 20000 nM; at Dipeptidyl peptidase 8, over 20000 nM; at Dipeptidyl peptidase 4 [7], 30 nM.
